From EP0504184B1, “ACTIVE AGENT AGAINST RETROVIRUS GROUP VIRUSES, COMPOSITIONS CONTAINING SAME AND THEIR USE” (PREVISAN S.A., priority 1989, dated 1991)

Test system: virus VIH-1
Assay: Infectivity of pretreated HIV-1 virus for the Supt-1 line (p24 antigen in cell lysates, optical density; phase-contrast microscopy)
Format: cell-based
Settings: for multiplication du virus VIH-1 dans les cellules Supt-1: after 1, 10 and 30 minutes incubation with the agent at ordinary temperature; for Mesure d'infectivité du virus VIH-1 (D.O.492): p24 in Supt-1 lysates
Excerpt: Ces essais comprennent comme matériel de départ : • de la N, N'-dichloroazodicarbonamidine (chloroazodine) à 95 % pure. La pureté a été examinée par chromatographie en couche mince et par un test de carbone-hydrogène (v. BRAZ G.I. et cons., J. Applied Chem. (USSR) 17,565-9 (1944)). • un surnageant de cultures de cellules (Molt-3) continuellement productrices de virus VIH-1. Le surnageant viral utilisé a une activité de transcriptase inverse de 1 x 10^6 cpm/ml. • des cellules d'une lignée T humaine continue de phénotype T4 (Supt-1) cultivée en milieu RPMI, additionné de 10 % de sérum de veau foetal et de 1 % de glutamine.
L' efficacité de la chloroazodine va être étudiée à deux niveaux : • a) action sur l'infectivité du virus VIH-1 pour la lignée Supt-1. • b) action sur l'intégration du génome viral dans l'ADN chromosomial des cellules Supt-1.
On fait incuber des préparations virales de VIH-1 à haut titre en présence de dilutions de chloroazodine de 1/1500 et de 1/3000 et pendant différents temps d'incubation. Pendant 30 minutes à 37°C, on traite préalablement les cellules Supt-1 par 10 µg/ml de polybrène, puis on les inocule avec les préparations de virus traités. On prévoit comme témoins, des cellules non inoculées, et des cellules inoculées par une préparation de virus non traités.
On détermine ensuite l'infectivité, à chaque passage cellulaire, de ces préparations en suivant la production virale (mesure de l'antigène p24 exprimé) dans les lysats cellulaires solubilisés des cellules Supt-1 examinées.
Les mesures du pouvoir infectieux du virus VIH-1 après incubation avec de la chloroazodine ressortent des tableaux 1 à 3 suivants, ainsi que des figures 1 à 3 qui correspondent aux tableaux 1 à 3. Sur ces figures, on trouve en ordonnée la densité optique (D.O.) et en abscisse le nombre de jours après l'infection. Le trait plein représente le témoin non traite, le trait interrompu la dilution de 1/1500 de chloroazodine, et le trait pointillé la dilution de 1/3000 de chloroazodine.

Q: How did the “multiplication du virus VIH-1 dans les cellules Supt-1” value (dilution 1/1500) turn out when NC(N=NC(N)=NCl)=NCl [chloroazodine, N, N'-dichloroazodicarbonamidine] was run?
A: The value was “empêche totalement le virus VIH-1 de se multiplier”.

Q: And the “multiplication du virus VIH-1 dans les cellules Supt-1” value (dilution 1/3000)?
A: The value was “empêche totalement le virus VIH-1 de se multiplier”.

Q: What about the “temps pour l'éradication totale des virus” value (low concentration, in organic medium, conclusion from examples 3 to 5) of the same compound?
A: Its value is no more than 1 min.

Q: And the “effet cytopathogène” value (phase-contrast microscopy, Supt-1 cells inoculated with virus pretreated with chloroazodine (control virus: syncytia from day 14))?
A: The value was “aucun effet cytopathogène”.

Q: And the “Mesure d'infectivité du virus VIH-1 (D.O.492)” value (virus incubated 1 minute with chloroazodine 1/1500, 10 days after infection)?
A: Its value is 0,174 ± 0,002.

Q: And the “Mesure d'infectivité du virus VIH-1 (D.O.492)” value (virus incubated 1 minute with chloroazodine 1/1500, 14 days after infection)?
A: Its value is 0,175 ± 0,016.

Q: And the “Mesure d'infectivité du virus VIH-1 (D.O.492)” value (virus incubated 1 minute with chloroazodine 1/1500, 17 days after infection)?
A: The value was 0,152 ± 0,016.

Q: And the “Mesure d'infectivité du virus VIH-1 (D.O.492)” value (virus incubated 1 minute with chloroazodine 1/1500, 21 days after infection)?
A: The value was 0,183 ± 0,026.

Q: What about the “Mesure d'infectivité du virus VIH-1 (D.O.492)” value (virus incubated 1 minute with chloroazodine 1/1500, 24 days after infection) of the same compound?
A: Its value is 0,180 ± 0,008.

Q: What about the “Mesure d'infectivité du virus VIH-1 (D.O.492)” value (virus incubated 1 minute with chloroazodine 1/3000, 10 days after infection) of the same compound?
A: Its value is 0,173 ± 0,009.

Q: And the “Mesure d'infectivité du virus VIH-1 (D.O.492)” value (virus incubated 1 minute with chloroazodine 1/3000, 14 days after infection)?
A: Its value is 0,149 ± 0,002.

Q: What about the “Mesure d'infectivité du virus VIH-1 (D.O.492)” value (virus incubated 1 minute with chloroazodine 1/3000, 17 days after infection) of the same compound?
A: The value was 0,172 ± 0,016.

Q: What about the “Mesure d'infectivité du virus VIH-1 (D.O.492)” value (virus incubated 1 minute with chloroazodine 1/3000, 21 days after infection) of the same compound?
A: Its value is 0,202 ± 0,003.

Q: And the “Mesure d'infectivité du virus VIH-1 (D.O.492)” value (virus incubated 1 minute with chloroazodine 1/3000, 24 days after infection)?
A: The value was 0,166 ± 0,004.

Q: What about the “Mesure d'infectivité du virus VIH-1 (D.O.492)” value (virus incubated 10 minutes with chloroazodine 1/1500, 10 days after infection) of the same compound?
A: Its value is 0,146 ± 0,004.

Q: And the “Mesure d'infectivité du virus VIH-1 (D.O.492)” value (virus incubated 10 minutes with chloroazodine 1/1500, 14 days after infection)?
A: Its value is 0,151 ± 0,006.

Q: What about the “Mesure d'infectivité du virus VIH-1 (D.O.492)” value (virus incubated 10 minutes with chloroazodine 1/1500, 17 days after infection) of the same compound?
A: Its value is 0,165 ± 0,013.

Q: What about the “Mesure d'infectivité du virus VIH-1 (D.O.492)” value (virus incubated 10 minutes with chloroazodine 1/1500, 21 days after infection) of the same compound?
A: The value was 0,188 ± 0,016.

Q: What about the “Mesure d'infectivité du virus VIH-1 (D.O.492)” value (virus incubated 10 minutes with chloroazodine 1/1500, 24 days after infection) of the same compound?
A: The value was 0,180 ± 0,008.

Q: And the “Mesure d'infectivité du virus VIH-1 (D.O.492)” value (virus incubated 10 minutes with chloroazodine 1/3000, 10 days after infection)?
A: Its value is 0,202 ± 0,021.

Q: And the “Mesure d'infectivité du virus VIH-1 (D.O.492)” value (virus incubated 10 minutes with chloroazodine 1/3000, 14 days after infection)?
A: Its value is 0,146 ± 0,010.

Q: What about the “Mesure d'infectivité du virus VIH-1 (D.O.492)” value (virus incubated 10 minutes with chloroazodine 1/3000, 17 days after infection) of the same compound?
A: Its value is 0,157 ± 0,005.

Q: And the “Mesure d'infectivité du virus VIH-1 (D.O.492)” value (virus incubated 10 minutes with chloroazodine 1/3000, 21 days after infection)?
A: The value was 0,182 ± 0,018.

Q: What about the “Mesure d'infectivité du virus VIH-1 (D.O.492)” value (virus incubated 10 minutes with chloroazodine 1/3000, 24 days after infection) of the same compound?
A: Its value is 0,166 ± 0,004.

Q: And the “Mesure d'infectivité du virus VIH-1 (D.O.492)” value (virus incubated 30 minutes with chloroazodine 1/1500, 10 days after infection)?
A: Its value is 0,185 ± 0,008.

Q: And the “Mesure d'infectivité du virus VIH-1 (D.O.492)” value (virus incubated 30 minutes with chloroazodine 1/1500, 14 days after infection)?
A: Its value is 0,142 ± 0,010.

Q: And the “Mesure d'infectivité du virus VIH-1 (D.O.492)” value (virus incubated 30 minutes with chloroazodine 1/1500, 17 days after infection)?
A: Its value is 0,176 ± 0,004.

Q: What about the “Mesure d'infectivité du virus VIH-1 (D.O.492)” value (virus incubated 30 minutes with chloroazodine 1/1500, 21 days after infection) of the same compound?
A: Its value is 0,194 ± 0,007.

Q: What about the “Mesure d'infectivité du virus VIH-1 (D.O.492)” value (virus incubated 30 minutes with chloroazodine 1/1500, 24 days after infection) of the same compound?
A: The value was 0,163 ± 0,003.

Q: And the “Mesure d'infectivité du virus VIH-1 (D.O.492)” value (virus incubated 30 minutes with chloroazodine 1/3000, 10 days after infection)?
A: The value was 0,205 ± 0,013.

Q: What about the “Mesure d'infectivité du virus VIH-1 (D.O.492)” value (virus incubated 30 minutes with chloroazodine 1/3000, 14 days after infection) of the same compound?
A: The value was 0,176 ± 0,005.

Q: What about the “Mesure d'infectivité du virus VIH-1 (D.O.492)” value (virus incubated 30 minutes with chloroazodine 1/3000, 17 days after infection) of the same compound?
A: The value was 0,174 ± 0,015.

Q: And the “Mesure d'infectivité du virus VIH-1 (D.O.492)” value (virus incubated 30 minutes with chloroazodine 1/3000, 21 days after infection)?
A: The value was 0,169 ± 0,000.
